From patent US20130303509A1, “NAMPT INHIBITORS” (AbbVie Inc., priority 2012, published 2013)

Tested on: PC3 cells
Test: NAMPT Cell Proliferation Assay
Assay type: cell-based
Settings: Homo sapiens, PC-3, 120 h, 5 days incubation, cell viability by Cell Titer Glo
Summary of the method: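 Seeded at 500 cells/well in RPMI with 10% heat-inactivated FBS and left to attach overnight at 37° C, 5% CO2. Compounds were added as 10-fold dilutions […] for 5 days, then viability was read by CellTiter-Glo. IC50s came from sigmoidal fits of percent inhibition.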

| IC50 [nM] | SMILES |
| --- | --- |
| 38.7 | O=C(Nc1ccc(OC2CN(C(=O)c3ccc(C(F)(F)F)cc3)C2)cc1)C1CN(c2ccnnc2)C1 [Example 205, 1-(pyridazin-4-yl)-N-[4-({1-[4-(trifluoromethyl)benzoyl]azetidin-3-yl}oxy)phenyl]azetidine-3-carboxamide] |
| 67.4 | O=C(Nc1ccc(OC2CN(C(=O)c3ccccc3)C2)cc1)C1CN(c2ccnnc2)C1 [Example 206, N-{4-[(1-benzoylazetidin-3-yl)oxy]phenyl}-1-(pyridazin-4-yl)azetidine-3-carboxamide] |
| 671 | CC(C)(O)C(=O)N1CC(Oc2ccc(NC(=O)C3CN(c4ccnnc4)C3)cc2)C1 [Example 207, N-(4-{[1-(2-hydroxy-2-methylpropanoyl)azetidin-3-yl]oxy}phenyl)-1-(pyridazin-4-yl)azetidine-3-carboxamide] |
| 593 | O=C(Nc1ccc(OC2CN(C(=O)C3CCOC3)C2)cc1)C1CN(c2ccnnc2)C1 (stereo not shown) [Example 208, 1-(pyridazin-4-yl)-N-(4-{[1-(tetrahydrofuran-3-ylcarbonyl)azetidin-3-yl]oxy}phenyl)azetidine-3-carboxamide] |
| 81.6 | O=C(Nc1ccc(OC2CN(C(=O)c3ccoc3)C2)cc1)C1CN(c2ccnnc2)C1 [Example 209, N-(4-{[1-(furan-3-ylcarbonyl)azetidin-3-yl]oxy}phenyl)-1-(pyridazin-4-yl)azetidine-3-carboxamide] |
| 62.7 | CCCCC(=O)N1CC(Oc2ccc(NC(=O)C3CN(c4ccnnc4)C3)cc2)C1 [Example 210, N-{4-[(1-pentanoylazetidin-3-yl)oxy]phenyl}-1-(pyridazin-4-yl)azetidine-3-carboxamide] |
| 5.94 | O=C(Nc1ccc(OC2CCN(C(=O)c3ccccc3Cl)CC2)cc1)C1CN(c2cccnn2)C1 [Example 211, N-(4-{[1-(2-chlorobenzoyl)piperidin-4-yl]oxy}phenyl)-1-(pyridazin-3-yl)azetidine-3-carboxamide] |
| 5.79 | CC[C@H](C)C(=O)N1CCC(Oc2ccc(NC(=O)C3CN(c4cccnn4)C3)cc2)CC1 [Example 212, N-[4-({1-[(2S)-2-methylbutanoyl]piperidin-4-yl}oxy)phenyl]-1-(pyridazin-3-yl)azetidine-3-carboxamide] |
| 6.88 | O=C(Nc1ccc(OC2CCN(C(=O)c3nccs3)CC2)cc1)C1CN(c2cccnn2)C1 [Example 213, 1-(pyridazin-3-yl)-N-(4-{[1-(1,3-thiazol-2-ylcarbonyl)piperidin-4-yl]oxy}phenyl)azetidine-3-carboxamide] |
| 9.09 | O=C(Nc1ccc(OC2CCN(C(=O)C3CCOCC3)CC2)cc1)C1CN(c2cccnn2)C1 [Example 214, 1-(pyridazin-3-yl)-N-(4-{[1-(tetrahydro-2H-pyran-4-ylcarbonyl)piperidin-4-yl]oxy}phenyl)azetidine-3-carboxamide] |
| 6.95 | O=C(Nc1ccc(OC2CCN(C(=O)C(F)(F)c3ccccc3)CC2)cc1)C1CN(c2cccnn2)C1 [Example 215, N-[4-({1-[difluoro(phenyl)acetyl]piperidin-4-yl}oxy)phenyl]-1-(pyridazin-3-yl)azetidine-3-carboxamide] |
| 5.99 | O=C(Nc1ccc(OC2CCN(C(=O)C3CCC(F)(F)CC3)CC2)cc1)C1CN(c2cccnn2)C1 [Example 216, N-[4-({1-[(4,4-difluorocyclohexyl)carbonyl]piperidin-4-yl}oxy)phenyl]-1-(pyridazin-3-yl)azetidine-3-carboxamide] |
| 2.55 | CC(C)(C(=O)N1CCC(Oc2ccc(NC(=O)C3CN(c4cccnn4)C3)cc2)CC1)c1ccccc1 [Example 217, N-(4-{[1-(2-methyl-2-phenylpropanoyl)piperidin-4-yl]oxy}phenyl)-1-(pyridazin-3-yl)azetidine-3-carboxamide] |
| 8.86 | O=C(Nc1ccc(OC2CCN(C(=O)c3cscn3)CC2)cc1)C1CN(c2cccnn2)C1 [Example 218, 1-(pyridazin-3-yl)-N-(4-{[1-(1,3-thiazol-4-ylcarbonyl)piperidin-4-yl]oxy}phenyl)azetidine-3-carboxamide] |
| 8.86 | Cc1ccc(C(=O)N2CCC(Oc3ccc(NC(=O)C4CN(c5cccnn5)C4)cc3)CC2)s1 [Example 219, N-[4-({1-[(5-methylthiophen-2-yl)carbonyl]piperidin-4-yl}oxy)phenyl]-1-(pyridazin-3-yl)azetidine-3-carboxamide] |
| 13.2 | O=C(Nc1ccc(OC2CCN(C(=O)Cc3ccc(C(F)(F)F)cc3)CC2)cc1)C1CN(c2cccnn2)C1 [Example 220, 1-(pyridazin-3-yl)-N-{4-[(1-{[4-(trifluoromethyl)phenyl]acetyl}piperidin-4-yl)oxy]phenyl}azetidine-3-carboxamide] |
| 8.99 | O=C(Nc1ccc(OC2CCN(C(=O)C3CCCO3)CC2)cc1)C1CN(c2cccnn2)C1 (stereo not shown) [Example 221, 1-(pyridazin-3-yl)-N-(4-{[1-(tetrahydrofuran-2-ylcarbonyl)piperidin-4-yl]oxy}phenyl)azetidine-3-carboxamide] |

| IC50 [nM] | SMILES |
| --- | --- |
| 15.5 | O=C(Nc1ccc(OC2CCN(C(=O)c3cccc(C(F)(F)F)c3)CC2)cc1)C1CN(c2cccnn2)C1 [Example 222, 1-(pyridazin-3-yl)-N-[4-({1-[3-(trifluoromethyl)benzoyl]piperidin-4-yl}oxy)phenyl]azetidine-3-carboxamide] |
| 5.5 | O=C(Nc1ccc(OC2CCN(C(=O)c3ccsc3)CC2)cc1)C1CN(c2cccnn2)C1 [Example 223, 1-(pyridazin-3-yl)-N-(4-{[1-(thiophen-3-ylcarbonyl)piperidin-4-yl]oxy}phenyl)azetidine-3-carboxamide] |
| 7.52 | O=C(Nc1ccc(OC2CCN(C(=O)c3cccc(OC(F)(F)F)c3)CC2)cc1)C1CN(c2cccnn2)C1 [Example 224, 1-(pyridazin-3-yl)-N-[4-({1-[3-(trifluoromethoxy)benzoyl]piperidin-4-yl}oxy)phenyl]azetidine-3-carboxamide] |
| 8.76 | CC(C)CC(=O)N1CCC(Oc2ccc(NC(=O)C3CN(c4cccnn4)C3)cc2)CC1 [Example 225, N-(4-{[1-(3-methylbutanoyl)piperidin-4-yl]oxy}phenyl)-1-(pyridazin-3-yl)azetidine-3-carboxamide] |
| 8.89 | O=C(Nc1ccc(OC2CCN(C(=O)C3CCOC3)CC2)cc1)C1CN(c2cccnn2)C1 (stereo not shown) [Example 226, 1-(pyridazin-3-yl)-N-(4-{[1-(tetrahydrofuran-3-ylcarbonyl)piperidin-4-yl]oxy}phenyl)azetidine-3-carboxamide] |
| 4.53 | O=C(Nc1ccc(OC2CCN(C(=O)Cc3cccc(F)c3)CC2)cc1)C1CN(c2cccnn2)C1 [Example 227, N-[4-({1-[(3-fluorophenyl)acetyl]piperidin-4-yl}oxy)phenyl]-1-(pyridazin-3-yl)azetidine-3-carboxamide] |
| 5.97 | O=C(Nc1ccc(OC2CCN(C(=O)c3ccccc3F)CC2)cc1)C1CN(c2cccnn2)C1 [Example 228, N-(4-{[1-(2-fluorobenzoyl)piperidin-4-yl]oxy}phenyl)-1-(pyridazin-3-yl)azetidine-3-carboxamide] |
| 6.46 | O=C(Nc1ccc(OC2CCN(C(=O)c3ccc(F)cc3F)CC2)cc1)C1CN(c2cccnn2)C1 [Example 229, N-(4-{[1-(2,4-difluorobenzoyl)piperidin-4-yl]oxy}phenyl)-1-(pyridazin-3-yl)azetidine-3-carboxamide] |
| 9.05 | O=C(Nc1ccc(OC2CCN(C(=O)c3ccc(F)cc3)CC2)cc1)C1CN(c2cccnn2)C1 [Example 230, N-(4-{[1-(4-fluorobenzoyl)piperidin-4-yl]oxy}phenyl)-1-(pyridazin-3-yl)azetidine-3-carboxamide] |
| 8.75 | O=C(Nc1ccc(OC2CCN(C(=O)c3cccc(F)c3)CC2)cc1)C1CN(c2cccnn2)C1 [Example 231, N-(4-{[1-(3-fluorobenzoyl)piperidin-4-yl]oxy}phenyl)-1-(pyridazin-3-yl)azetidine-3-carboxamide] |
| 8.74 | O=C(Nc1ccc(OC2CCN(C(=O)Cc3ccc(F)cc3)CC2)cc1)C1CN(c2cccnn2)C1 [Example 232, N-[4-({1-[(4-fluorophenyl)acetyl]piperidin-4-yl}oxy)phenyl]-1-(pyridazin-3-yl)azetidine-3-carboxamide] |
| 8.73 | O=C(Nc1ccc(OC2CCN(C(=O)CC3CC3)CC2)cc1)C1CN(c2cccnn2)C1 [Example 233, N-(4-{[1-(cyclopropylacetyl)piperidin-4-yl]oxy}phenyl)-1-(pyridazin-3-yl)azetidine-3-carboxamide] |
| 10.5 | O=C(Nc1ccc(OC2CCN(C(=O)c3ccc(F)c(F)c3)CC2)cc1)C1CN(c2cccnn2)C1 [Example 234, N-(4-{[1-(3,4-difluorobenzoyl)piperidin-4-yl]oxy}phenyl)-1-(pyridazin-3-yl)azetidine-3-carboxamide] |
| 12.4 | O=C(Nc1ccc(OC2CCN(C(=O)c3ccc(OC(F)(F)F)cc3)CC2)cc1)C1CN(c2cccnn2)C1 [Example 235, 1-(pyridazin-3-yl)-N-[4-({1-[4-(trifluoromethoxy)benzoyl]piperidin-4-yl}oxy)phenyl]azetidine-3-carboxamide] |
| 9.25 | O=C(Nc1ccc(OC2CCN(C(=O)Cc3ccc(F)cc3F)CC2)cc1)C1CN(c2cccnn2)C1 [Example 236, N-[4-({1-[(2,4-difluorophenyl)acetyl]piperidin-4-yl}oxy)phenyl]-1-(pyridazin-3-yl)azetidine-3-carboxamide] |
| 10.3 | O=C(Nc1ccc(OC2CCN(C(=O)c3ccc(C(F)(F)F)cc3)CC2)cc1)C1CN(c2cccnn2)C1 [Example 237, 1-(pyridazin-3-yl)-N-[4-({1-[4-(trifluoromethyl)benzoyl]piperidin-4-yl}oxy)phenyl]azetidine-3-carboxamide] |
| 15.7 | O=C(Nc1ccc(OC2CCN(C(=O)Cc3ccc(OC(F)(F)F)cc3)CC2)cc1)C1CN(c2cccnn2)C1 [Example 238, 1-(pyridazin-3-yl)-N-{4-[(1-{[4-(trifluoromethoxy)phenyl]acetyl}piperidin-4-yl)oxy]phenyl}azetidine-3-carboxamide] |
